Source: US20090312294A1, “Method and Agent for Reducing Weight, Accelerating Lipid Catabolism, and/or Restricting Calories” (priority 2006, published 2009)
Several values for one entry are separate records, joined by “and”; a condition that tells them apart may be missing. Identical values can stand only once.

Assay: Clinical study on the action of the formulations for weight reduction
Type: in vivo, human
Settings: body weight per patient; postmenopausal women aged 52-59; 100 mg chrysin daily after lunch for 5 days; each table row is one patient
Protocol: Eight women between 52 and 59 in age who were hormonally in postmenopause and despite an activity program and targeted nutrition observed no change in weight, took 100 mg of chrysin for 5 days. This dose is under the dosages of any formulations which are offered as food supplements. After a further 5 days, the patients were advised, in order to excite the conversion of peripheral […], to take additionally 100 mg of cholic acid as supplement. Intake proceeded in each case at midday after lunch.

O=c1cc(-c2ccccc2)oc2cc(O)cc(O)c12 [chrysin]
kg after 5 days of 100 mg of chrysin: 73.5 kg and 69.5 kg (2×) and 65 kg and 71 kg and 78 kg and 70.2 kg and 67 kg
